In data set [1] the target is T1, Beta-secretase 1 (Homo sapiens, UniProt P56817).
In data set [2] the target is T1, Beta-secretase 1. Nature of the data set: Inhibition of BACE1 assessed as amyloid beta (1-40) production.
The test system of data set [3] is Mus musculus. Nature of the data set: Reduction in amyloid beta in mouse plasma at 25 mg/kg, po. Also noted: dose 25 mg/kg, route oral; scale not given: the % may be the effect or the level left. It counts as ADME, organism-based. The settings on record: in vivo.
Data set [4] deals with Mus musculus. Nature of the data set: Reduction in amyloid beta in mouse plasma at 10 mg/kg, po. It counts as ADME, organism-based. Also noted: dose 10 mg/kg, route oral; scale not given: the % may be the effect or the level left. As to conditions: in vivo.
The test system of data set [5] is Mus musculus. Nature of the data set: Reduction in amyloid beta in mouse plasma at 50 mg/kg, po. The data set is classed as ADME, organism-based. Also noted: dose 50 mg/kg, route oral; scale not given: the % may be the effect or the level left. As to conditions: in vivo.

As a reminder, the Ki is a measure of affinity in units of concentration, obtained from inhibition or displacement. The term IC50 denotes the concentration needed to halve the response being measured.

T1 sequence (P56817 whole entry): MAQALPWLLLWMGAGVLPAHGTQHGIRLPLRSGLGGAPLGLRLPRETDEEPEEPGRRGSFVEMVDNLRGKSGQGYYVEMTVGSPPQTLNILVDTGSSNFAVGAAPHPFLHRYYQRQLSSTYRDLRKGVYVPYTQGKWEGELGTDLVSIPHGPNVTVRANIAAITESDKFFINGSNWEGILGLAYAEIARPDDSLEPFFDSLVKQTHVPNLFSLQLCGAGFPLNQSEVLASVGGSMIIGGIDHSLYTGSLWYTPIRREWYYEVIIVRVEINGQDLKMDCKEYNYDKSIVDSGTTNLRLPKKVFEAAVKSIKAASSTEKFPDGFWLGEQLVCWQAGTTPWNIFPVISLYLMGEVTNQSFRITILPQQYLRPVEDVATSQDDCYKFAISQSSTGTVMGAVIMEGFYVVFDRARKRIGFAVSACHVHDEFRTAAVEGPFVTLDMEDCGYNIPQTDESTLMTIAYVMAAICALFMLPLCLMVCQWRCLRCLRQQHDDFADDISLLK

On Beta-secretase 1 [1], `NC1=Nc2cc(F)c3cc2CN1[C@H](C1CCCCC1)CCC(=O)N(C1CCCCC1)CCc1cccc(c1)O3` had a Ki of 8 nM. In addition, the concentration for half-maximal inhibition (IC50) on Beta-secretase 1 [2] was 30 nM.

On to `CC(C)[C@@H]1CCC(=O)N(C2CCOCC2)CCc2cccc(c2)Oc2ccc3c(c2)CN1C(N)=N3`, for which, on Beta-secretase 1 [2], the IC50 is 685 nM.

In the case of `NC1=Nc2ccc3cc2CN1[C@H](C1CCCCC1)CCC(=O)N(C1CCCCC1)CCc1cccc(c1)O3`, the Activity in the data set with Mus musculus [3] amounted to 22%; in the data set with Mus musculus [4], 13%; with Mus musculus [5] it was 23%.

Turning to `NC1=Nc2cnc3cc2CN1[C@H](C1CCCCC1)CCC(=O)N(C1CCCCC1)CCc1cccc(c1)O3`, the inhibition constant Ki on Beta-secretase 1 [1] was 5 nM. Also, on Beta-secretase 1 [2], the IC50 came to 7 nM.

These data come from ChEMBL document CHEMBL1157115, “Macrocyclic BACE inhibitors: Optimization of a micromolar hit to nanomolar leads” (Bioorg Med Chem Lett, 2010).
